We go through two molecules from article PMC11395096, “Study of Pentacyclic Triterpenes from Lyophilised Aguaje: Anti-Inflammatory and Antioxidant Properties” (International Journal of Molecular Sciences, 2024).

Series [1] deals with Nrf2. Conditions: cited from earlier work.
Series [2] is described as follows: NR (neutral red) viability assay, IC-21 cells. The class given is cell-based, Mus musculus. To be noted: mouse, IC-21, 72 h. The text has this: (§1) The IC-21 (Mus musculus macrophage cells, TIB-186) and RAW 264.7 (Mus musculus macrophage cells, TIB-71) cell lines used in this study were obtained from the American Type Culture Collection (ATCC, Manassas, VA, USA). The selection of IC-21 and RAW 264.7 cell lines for studies on inflammation and antioxidant activity is based on two main reasons: the cell type and their origin. Firstly, both IC-21 and RAW 264.7 cell lines are macrophages, which play a crucial role in the immune system, being essential for the inflammatory response and regulation of oxidative stress. These cells have the capacity to produce pro-inflammatory cytokines, express transcription factors such as NF-κB, and generate NO, making them ideal models to understand inflammatory mechanisms. Moreover, macrophages are involved in the activation of Nrf2, a transcription factor critical for the antioxidant response, allowing these cell lines to enable a comprehensive assessment of antioxidant activity within an inflammatory context.
(§2) Cultivated in a Roswell Park Memorial Institute (RPMI) 1640 medium (RPMI 1640 Sigma-Aldrich, CAS No. R7755, St. Louis, MO, USA) supplemented with 2 mM L-glutamine (≥99% Sigma-Aldrich, CAS No. 56-85-9, St. Louis, MO, USA), 10% foetal bovine serum (FBS Sigma-Aldrich, CAS No. TMS-016, St. Louis, MO, USA), and 10,000 units of penicillin and 10 mg streptomycin mL^−1 (Sigma-Aldrich, CAS No. P4333, St. Louis, MO, USA) in culture flasks, the cells were maintained in an incubator under normoxic conditions (20–21% O2) and a humidified atmosphere (5% CO2, at 37 °C).
(§3) Stock solutions of the samples (extracts and compounds) were prepared at a concentration of 1 mM using dimethyl sulfoxide (DMSO ≥ 99.9% Sigma-Aldrich, CAS No. 67-68-5, St. Louis, MO, USA) as the solvent. Dilutions from these stock solutions were then made to achieve concentrations between 100 and 0.20 μg mL^−1 or μM in the culture medium, which contained 0.5% DMSO. A control group consisting only of the culture medium with 0.5% DMSO was also included to determine its potential cytotoxicity.
(§4) The 50% cytotoxic concentration (CC50), 50% inhibitory concentration (IC50), and half-maximal effective concentration (EC50) values were calculated using the sigmoidal dose–response function. All experiments were conducted in triplicate, and the data obtained were expressed as the mean and standard deviation. A two-way analysis of variance (ANOVA) combined with Dunnett’s multiple comparisons test (p < 0.001) was performed for the cytotoxicity, NF-κB inhibition, NO inhibition and Nrf2 activation assays, while a one-way ordinary ANOVA combined with Dunnett’s multiple comparisons test (p < 0.001) was conducted for the SOD assay. All statistical analyses were performed using GraphPad Prism version 10.0.0 (La Jolla, CA, USA, www.graphpad.com, accessed on 28 August 2024).
(§5) Cell viability was evaluated using a colorimetric assay in 96-well plates, employing 3-amino-7-dimethylamino-2-methylphenazine hydrochloride salt reagent (NR, Sigma-Aldrich, CAS No. 553-24-2, St. Louis, MO, USA). ACTD (≥95% Sigma-Aldrich, CAS No. 50-76-0, St. Louis, MO, USA) was used as a positive control, with a CC50 value of 0.01 μg mL^−1 for the extracts, or 0.008 μM for the compounds. The IC-21 and RAW 264.7 cell lines were cultured in 96-well plates at 37 °C with 5% CO2 until >90% confluency was achieved (1 × 10^4 cells per well). Subsequently, the cultures were treated with sample dilutions (100–0.20 μg mL^−1 or μM) for 72 h at 37 °C with 5% CO2 in phenol red-free RPMI. The supernatant was then discarded, and the cells were washed with phosphate-buffered saline (PBS) before being incubated with […] NR (50 μg mL^−1; 173 μM) for 3 h at 37 °C with 5% CO2. NR labelling was performed after DMSO treatment. […]

Series [3] is described as follows: NR (neutral red) viability assay, RAW 264.7 cells. To be noted: mouse, RAW 264.7, 72 h. The class given is cell-based, Mus musculus.
From the text: as §1, §2, §3, §4, §5

Series [4] can be described thus: NR viability assay, value not assigned to one cell line. The class given is cell-based, Mus musculus. Conditions: mouse. How it is done: (§6) Cell viability was evaluated using a colorimetric assay in 96-well plates, employing 3-amino-7-dimethylamino-2-methylphenazine hydrochloride salt reagent (NR, Sigma-Aldrich, CAS No. 553-24-2, St. Louis, MO, USA). ACTD (≥95% Sigma-Aldrich, CAS No. 50-76-0, St. Louis, MO, USA) was used as a positive control, with a CC50 value of 0.01 μg mL^−1 for the extracts, or 0.008 μM for the compounds. The IC-21 and RAW 264.7 cell lines were cultured in 96-well plates at 37 °C with 5% CO2 until >90% confluency was achieved (1 × 10^4 cells per well). Subsequently, the cultures were treated with sample dilutions (100–0.20 μg mL^−1 or μM) for 72 h at 37 °C with 5% CO2 in phenol red-free RPMI. The supernatant was then discarded, and the cells were washed with phosphate-buffered saline (PBS) before being incubated with […] NR (50 μg mL^−1; 173 μM) for 3 h at 37 °C with 5% CO2. NR labelling was performed after DMSO treatment. After incubation, the labelled sample dilutions were rapidly washed with a fixative solution composed of 1% calcium chloride (CaCl2 Sigma-Aldrich, CAS No. 10043-52-4, St. Louis, MO, USA) and 0.5% formaldehyde solution (≥36.0% in H2O Sigma-Aldrich, CAS No. 50-00-0, St. Louis, MO, USA), then diluted with 100 μL of the NR extraction solution. Finally, the plates were read at 540 nm using a microplate reader (Anthos 2020, version 2.0.5, Biochrom Ltd., Cambridge, UK).

The test system of series [5] is IC-21 and RAW 264.7 cell lines. Described as above. The class given is cell-based, Mus musculus. To be noted: across IC-21 and RAW 264.7 / cell line not given, compounds series. How it is done:
as §6

Starred links: 1 amine or outer side, 2 acyl side, 3 side chain; linkers in the order of their positions; H or OH if unused. Positions of bridges follow the written chain, without caps; N, C: chain ends. Non-standard residues stand in square brackets, D forms with d. Residues, ends and D or L forms follow the SMILES beside them. Chains are numbered I, II in the order given. Actinocin(9to1) = Cc1c2oc3c(C)ccc(C(=O)[*:1])c3nc-2c(C(=O)[*:2])c(N)c1=O; NMeV = CN[C@H](C(=O)O)C(C)C; Sar = CNCC(=O)O

On to `C[S+]([O-])CCCCN=C=S` (centres unmarked) [sulforaphane], for which the “concentration activating the Nrf2 signalling pathway” value in series [1] is 5 to 20 µM.

For `Cc1c2oc3c(C)ccc(C(=O)N[C@@H]4C(=O)N[C@H](C(C)C)C(=O)N5CCC[C@H]5C(=O)N(C)CC(=O)N(C)[C@@H](C(C)C)C(=O)O[C@@H]4C)c3nc-2c(C(=O)N[C@@H]2C(=O)N[C@H](C(C)C)C(=O)N3CCC[C@H]3C(=O)N(C)CC(=O)N(C)[C@@H](C(C)C)C(=O)O[C@@H]2C)c(N)c1=O` [ACTD, actinomycin D, reference compound] (I: T[dV]P[Sar][NMeV] / II: T[dV]P[Sar][NMeV]; ester I:1-I:C, II:1-II:C; linker I:N-II:N via Actinocin(9to1)), the 50% cytotoxic concentration (CC50) at 72 h in series [2] (compounds series) is 8.5 nM; in series [2] (extracts series) it was 0.0143 µg/mL; in series [3] (compounds series) it was 8.8 nM; in series [3] (extracts series), 0.0193 µg/mL; in series [4] (across IC-21 and RAW 264.7 / cell line not given, compounds series) it was 8.5 to 8.8 nM; in series [4] (cell line not stated, extracts series), 0.01 µg/mL. In addition, the CC50 in series [5] was 8 nM.
